Results from patent US11123337B2, “4-methylsulfonyl-substituted piperidine urea compounds” (MYOKARDIA, INC., priority 2015, dated 2021).

Target: bovine cardiac myosin (Bos taurus, UniProt Q9BE39)
Test: Myosin activation assay (PK/LDH-coupled ATPase, bovine cardiac myofibrils)
Assay type: biochemical
Conditions: AC20 = concentration at which total response is increased by twenty percent
Description: Small molecule agents were assessed for their ability to activate the enzymatic activity of bovine cardiac myosin using a biochemical assay that couples the release of ADP (adenosine diphosphate) from cardiac myosin to an enzymatic coupling system consisting of pyruvate kinase and lactate dehydrogenase (PK/LDH) and monitoring the absorbance decrease of NADH (at 340 nm) as a function of time. PK converts ADP to ATP (adenosine triphosphate) by converting PEP (phosphoenolpyruvate) to pyruvate. Pyruvate is then converted to lactate by LDH by converting NADH (nicotinamide adenine dinucleotide) to NAD (oxidized nicotinamide adenine dinucleotide). The source of cardiac myosin was from bovine heart in the form of skinned myofibrils. Prior to testing small molecule agents, the bovine myofibrils were assessed for their calcium responsiveness and the calcium concentration that achieves either a 50% (pCa50 or pCa=˜6) or <5% (pCa=10) activation of the myofibril system was chosen as the final condition for assessing the activation activity of the small molecule agents. All enzymatic activity was measured in a buffered solution containing 12 mM PIPES (piperazine-N,N′-bis(2-ethanesulfonic acid), 2 mM magnesium chloride at pH 6.8 (PM12 buffer). Final assay conditions were 1 mg/mL of bovine cardiac myofibrils, 0.4 mM PK/LDH, 50 uM ATP, 0.1 mg/mL BSA (bovine serum albumin), 10 ppm antifoam, 2 mM BME, 0.5 mM NADH, 1.5 mM PEP at the desired free calcium concentration required to achieve either 50% or <5% activation of the myofibrils.
A dilution series of compound was created in DMSO such that the final desired concentration of compound would be achieved in a volume of […] with a fixed DMSO concentration of 3.3% (v/v). Typically a 1 μL of the dilution series was added to a 384 well plate to achieve a 10 point dose response. Following the addition of 14 μL of a solution containing bovine cardiac myofibrils, PK/LDH and a solution of calcium (that achieved the desired activation), the enzymatic reaction was started with the addition of 15 μL of a solution containing ATP, PEP and NADH. The reaction progress was followed in a PerkinElmer Envision plate reader at ambient temperature using clear bottom plates. The plate reader was configured to read absorbance at 340 nm in kinetics mode for 15 minutes. Data were recorded as the slope of the absorbance response to time. The slopes of the absorbance response as a function of time were normalized to slopes on the plate containing DMSO. This normalized rate was then plotted as a function of small molecule concentration and the data was fitted to a four-parameter fit using EXCEL XLfit. The concentration at which the total response is increased by twenty or fifty percent is reported as AC20 or AC50.

bovine cardiac myosin, sequence (Q9BE39 whole entry): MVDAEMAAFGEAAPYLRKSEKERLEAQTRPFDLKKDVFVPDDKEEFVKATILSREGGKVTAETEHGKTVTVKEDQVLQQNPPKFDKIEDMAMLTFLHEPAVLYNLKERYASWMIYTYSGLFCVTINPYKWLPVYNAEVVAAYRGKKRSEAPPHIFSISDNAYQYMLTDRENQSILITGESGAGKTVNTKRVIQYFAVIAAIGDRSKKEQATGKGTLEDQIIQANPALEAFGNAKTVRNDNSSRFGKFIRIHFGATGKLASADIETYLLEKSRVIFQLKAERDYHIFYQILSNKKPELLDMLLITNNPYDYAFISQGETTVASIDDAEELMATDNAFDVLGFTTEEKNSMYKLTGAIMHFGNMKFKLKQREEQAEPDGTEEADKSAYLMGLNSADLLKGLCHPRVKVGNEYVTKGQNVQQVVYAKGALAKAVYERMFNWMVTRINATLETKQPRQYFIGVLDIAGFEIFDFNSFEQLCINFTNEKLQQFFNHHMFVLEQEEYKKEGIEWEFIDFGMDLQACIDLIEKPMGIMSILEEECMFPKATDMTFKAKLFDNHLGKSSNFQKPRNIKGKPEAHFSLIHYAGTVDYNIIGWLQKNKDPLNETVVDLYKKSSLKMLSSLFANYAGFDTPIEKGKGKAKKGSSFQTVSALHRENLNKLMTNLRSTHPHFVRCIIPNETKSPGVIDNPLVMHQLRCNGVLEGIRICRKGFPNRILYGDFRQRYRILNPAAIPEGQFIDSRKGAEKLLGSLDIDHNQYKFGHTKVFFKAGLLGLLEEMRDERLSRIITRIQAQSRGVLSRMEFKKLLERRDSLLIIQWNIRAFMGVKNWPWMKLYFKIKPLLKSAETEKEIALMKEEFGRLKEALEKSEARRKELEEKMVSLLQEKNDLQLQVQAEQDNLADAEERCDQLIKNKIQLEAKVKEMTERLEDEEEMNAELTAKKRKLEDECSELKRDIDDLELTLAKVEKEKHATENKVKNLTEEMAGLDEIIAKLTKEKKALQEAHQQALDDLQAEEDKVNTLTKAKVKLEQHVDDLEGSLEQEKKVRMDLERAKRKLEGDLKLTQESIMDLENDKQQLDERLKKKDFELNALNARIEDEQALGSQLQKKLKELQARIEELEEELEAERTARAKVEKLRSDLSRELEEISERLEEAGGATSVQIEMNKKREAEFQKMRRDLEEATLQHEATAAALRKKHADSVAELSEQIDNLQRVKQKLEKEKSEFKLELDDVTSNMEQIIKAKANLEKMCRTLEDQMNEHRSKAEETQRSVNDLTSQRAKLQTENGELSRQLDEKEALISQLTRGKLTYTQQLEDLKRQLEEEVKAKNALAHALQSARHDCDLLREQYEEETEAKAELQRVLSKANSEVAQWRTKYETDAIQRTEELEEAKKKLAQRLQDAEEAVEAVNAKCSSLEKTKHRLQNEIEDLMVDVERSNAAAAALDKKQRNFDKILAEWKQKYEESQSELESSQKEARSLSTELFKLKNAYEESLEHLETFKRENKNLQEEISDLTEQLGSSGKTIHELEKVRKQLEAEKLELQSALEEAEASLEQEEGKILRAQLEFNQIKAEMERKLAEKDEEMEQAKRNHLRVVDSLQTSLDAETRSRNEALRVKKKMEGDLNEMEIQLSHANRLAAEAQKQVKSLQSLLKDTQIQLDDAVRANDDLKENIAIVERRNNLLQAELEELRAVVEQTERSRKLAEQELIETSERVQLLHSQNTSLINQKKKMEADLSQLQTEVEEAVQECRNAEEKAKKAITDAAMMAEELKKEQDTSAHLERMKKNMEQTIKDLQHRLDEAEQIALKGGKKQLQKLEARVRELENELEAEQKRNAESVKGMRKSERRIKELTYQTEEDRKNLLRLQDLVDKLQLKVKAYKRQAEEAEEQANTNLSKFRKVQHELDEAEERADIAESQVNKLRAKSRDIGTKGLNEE
bovine cardiac myosin, sequence (P85100 whole entry partner): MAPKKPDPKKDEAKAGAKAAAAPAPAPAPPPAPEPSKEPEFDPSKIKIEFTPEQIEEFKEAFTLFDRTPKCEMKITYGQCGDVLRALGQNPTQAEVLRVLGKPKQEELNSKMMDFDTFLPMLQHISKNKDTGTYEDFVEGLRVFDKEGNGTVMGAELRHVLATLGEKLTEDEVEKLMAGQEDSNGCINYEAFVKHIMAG
bovine cardiac myosin, sequence (Q3SZE5 whole entry partner): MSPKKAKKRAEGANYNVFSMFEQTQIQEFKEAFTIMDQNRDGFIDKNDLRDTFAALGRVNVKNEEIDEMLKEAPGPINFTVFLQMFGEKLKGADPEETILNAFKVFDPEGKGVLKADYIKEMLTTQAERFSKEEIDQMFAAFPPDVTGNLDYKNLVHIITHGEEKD

Structure (SMILES)	Myosin Activation (AC20)
O=C(Nc1cncs1)N1CCC(CS(=O)(=O)c2cccc(F)c2)CC1 [Compound 36, 4-(((3-fluorophenyl)sulfonyl)methyl)-N-(thiazol-5-yl)piperidine-1-carboxamide]	+ (+ represents myosin activation value AC20 > 5 μM)
O=C(Nc1cncs1)N1CCC(C2(S(=O)(=O)c3cccc(F)c3)CC2)CC1 [Compound 37, 4-(1-((3-fluorophenyl)sulfonyl)cyclopropyl)-N-(thiazol-5-yl)piperidine-1-carboxamide]	+++ (+++ represents myosin activation value AC20 < 2 μM)
Cc1ccc(S(=O)(=O)CC2CCN(C(=O)Nc3ccncc3)CC2)cc1 [Compound 38, N-(pyridin-4-yl)-4-(tosylmethyl)piperidine-1-carboxamide]	+ (+ represents myosin activation value AC20 > 5 μM)
Cc1ccccc1S(=O)(=O)CC1CCN(C(=O)Nc2ccncc2)CC1 [Compound 39, N-(pyridin-4-yl)-4-((o-tolylsulfonyl)methyl)piperidine-1-carboxamide]	+ (+ represents myosin activation value AC20 > 5 μM)
O=C(Nc1ccncc1)N1CCC(C2(S(=O)(=O)c3cccc(F)c3)CCC2)CC1 [Compound 42, 4-(1-((3-fluorophenyl)sulfonyl)cyclobutyl)-N-(pyridin-4-yl)piperidine-1-carboxamide]	+++ (+++ represents myosin activation value AC20 < 2 μM)
O=C(Nc1ccnnc1)N1CCC(C2(S(=O)(=O)c3cccc(F)c3)CCC2)CC1 [Compound 43, 4-(1-((3-fluorophenyl)sulfonyl)cyclobutyl)-N-(pyridazin-4-yl)piperidine-1-carboxamide]	+++ (+++ represents myosin activation value AC20 < 2 μM)
O=C(Nc1cnns1)N1CCC(C(F)(F)S(=O)(=O)c2cccc(F)c2)CC1 [Compound 44, 4-(difluoro((3-fluorophenyl)sulfonyl)methyl)-N-(1,2,3-thiadiazol-5-yl)piperidine-1-carboxamide]	+ (+ represents myosin activation value AC20 > 5 μM)
CC(F)(C1CCN(C(=O)Nc2cnns2)CC1)S(=O)(=O)c1cccc(F)c1 (centres unmarked) [Compound 45, 4-(1-fluoro-1-((3-fluorophenyl)sulfonyl)ethyl)-N-(1,2,3-thiadiazol-5-yl)piperidine-1-carboxamide]	+++ (+++ represents myosin activation value AC20 < 2 μM)
O=C(Nc1ccnnc1)N1CCC(C(F)(F)S(=O)(=O)c2ccc(OC(F)(F)F)cc2)CC1 [Compound 48, 4-(difluoro((4-(trifluoromethoxy)phenyl)sulfonyl)methyl)-N-(pyridazin-4-yl)piperidine-1-carboxamide]	++ (++ represents myosin activation value AC20 from 2 μM-5 μM)
O=C(Nc1ccnnc1)N1CCC(C(F)(F)S(=O)(=O)c2cccc(C(F)(F)F)c2)CC1 [Compound 49, 4-(difluoro((3-(trifluoromethyl)phenyl)sulfonyl)methyl)-N-(pyridazin-4-yl)piperidine-1-carboxamide]	++ (++ represents myosin activation value AC20 from 2 μM-5 μM)
Cc1ccc(S(=O)(=O)C(F)(F)C2CCN(C(=O)Nc3ccnnc3)CC2)cn1 [Compound 50, 4-(difluoro((6-methylpyridin-3-yl)sulfonyl)methyl)-N-(pyridazin-4-yl)piperidine-1-carboxamide]	++ (++ represents myosin activation value AC20 from 2 μM-5 μM)
Cc1cc(C#N)ccc1S(=O)(=O)C(F)(F)C1CCN(C(=O)Nc2ccnnc2)CC1 [Compound 52, 4-(((4-cyano-2-methylphenyl)sulfonyl)difluoromethyl)-N-(pyridazin-4-yl)piperidine-1-carboxamide]	++ (++ represents myosin activation value AC20 from 2 μM-5 μM)
Cc1ccccc1S(=O)(=O)C(C)(F)C1CCN(C(=O)Nc2ccnnc2)CC1 (centres unmarked) [Compound 53, 4-(1-fluoro-1-(o-tolylsulfonyl)ethyl)-N-(pyridazin-4-yl)piperidine-1-carboxamide]	+++ (+++ represents myosin activation value AC20 < 2 μM)
N#Cc1ccccc1S(=O)(=O)C(F)(F)C1CCN(C(=O)Nc2ccnnc2)CC1 [Compound 54, 4-(((2-cyanophenyl)sulfonyl)difluoromethyl)-N-(pyridazin-4-yl)piperidine-1-carboxamide]	++ (++ represents myosin activation value AC20 from 2 μM-5 μM)
COc1ncccc1S(=O)(=O)C(C)(F)C1CCN(C(=O)Nc2ccnnc2)CC1 (centres unmarked) [Compound 55, 4-(1-fluoro-1-((2-methoxypyridin-3-yl)sulfonyl)ethyl)-N-(pyridazin-4-yl)piperidine-1-carboxamide]	++ (++ represents myosin activation value AC20 from 2 μM-5 μM)
CC(F)(C1CCN(C(=O)Nc2ccnnc2)CC1)S(=O)(=O)c1ccccc1C#N (centres unmarked) [Compound 56, 4-(1-((2-cyanophenyl)sulfonyl)-1-fluoroethyl)-N-(pyridazin-4-yl)piperidine-1-carboxamide]	+++ (+++ represents myosin activation value AC20 < 2 μM)
CC(F)(C1CCN(C(=O)Nc2ccnnc2)CC1)S(=O)(=O)c1ccccc1C(F)(F)F (centres unmarked) [Compound 57, 4-(1-fluoro-1-((2-(trifluoromethyl)phenyl)sulfonyl)ethyl)-N-(pyridazin-4-yl)piperidine-1-carboxamide]	++ (++ represents myosin activation value AC20 from 2 μM-5 μM)
Cn1nccc1-c1ccc(S(=O)(=O)C(F)(F)C2CCN(C(=O)Nc3ccnnc3)CC2)cc1 [Compound 58, 4-(difluoro((4-(1-methyl-1H-pyrazol-5-yl)phenyl)sulfonyl)methyl)-N-(pyridazin-4-yl)piperidine-1-carboxamide]	+ (+ represents myosin activation value AC20 > 5 μM)
O=C(Nc1ccnnc1)N1CCC(C(F)(F)S(=O)(=O)c2ccc(C3CC3)nc2)CC1 [Compound 60, 4-(((6-cyclopropylpyridin-3-yl)sulfonyl)difluoromethyl)-N-(pyridazin-4-yl)piperidine-1-carboxamide]	++ (++ represents myosin activation value AC20 from 2 μM-5 μM)
COc1c(F)cccc1S(=O)(=O)C(F)(F)C1CCN(C(=O)Nc2ccnnc2)CC1 [Compound 61, 4-(difluoro((3-fluoro-2-methoxyphenyl)sulfonyl)methyl)-N-(pyridazin-4-yl)piperidine-1-carboxamide]	++ (++ represents myosin activation value AC20 from 2 μM-5 μM)
COc1ccccc1S(=O)(=O)C(F)(F)C1CCN(C(=O)Nc2ccnnc2)CC1 [Compound 62, 4-(difluoro((2-methoxyphenyl)sulfonyl)methyl)-N-(pyridazin-4-yl)piperidine-1-carboxamide]	+ (+ represents myosin activation value AC20 > 5 μM)
Cc1ccc(F)cc1S(=O)(=O)C(F)(F)C1CCN(C(=O)Nc2ccnnc2)CC1 [Compound 63, 4-(difluoro((5-fluoro-2-methylphenyl)sulfonyl)methyl)-N-(pyridazin-4-yl)piperidine-1-carboxamide]	++ (++ represents myosin activation value AC20 from 2 μM-5 μM)
O=C(Nc1ccnnc1)N1CCC(C(F)(F)S(=O)(=O)c2ccc(-n3cncn3)cc2)CC1 [Compound 64, 4-(((4-(1H-1,2,4-triazol-1-yl)phenyl)sulfonyl)difluoromethyl)-N-(pyridazin-4-yl)piperidine-1-carboxamide]	++ (++ represents myosin activation value AC20 from 2 μM-5 μM)
